According to PMC9506414, “Novel 2,6,9-Trisubstituted Purines as Potent CDK Inhibitors Alleviating Trastuzumab-Resistance of HER2-Positive Breast Cancers” (Pharmaceuticals, 2022):
Entries after “also recorded” stand apart in the source; their conditions may differ. Where two headings read alike, the source gives them in different places.

Key:
HCC1954 cells = test: Antiproliferation assay (Cell-titer Glo, 72 h); type: cell-based; conditions: Homo sapiens, 72 h, means and standard deviations from three independent assays, read-out: HCC1954 (GI50/μM)
Procedure: (§1) Breast-cancer cell lines (SK-Br3, HCC-1954) were purchased from Korea Cell Line Bank (Seoul, Korea) and were cultured in RPMI medium supplemented with 10% FBS and penicillin/streptomycin (Welgene, Seoul, Korea). All cell lines were maintained at 37 °C in a cell incubator in the presence of 5% CO2.
(§2) Breast-cancer cells in culture media (100 μL volume/well, 5000 SK-Br3 cells/well, 1000 HCC-1954 cells/well) were seeded in tissue culture-treated 96-well plates, and incubated at a cell incubator for 24 h. Serially diluted compounds (3-fold, 10 point from 10 mM, duplicated) were pre-plated and 500 nL of compound solutions were pin-transferred to the cells in the assay plates using pintool system (JANUS liquid handler, PerkinElmer, Waltham, MA, USA) and incubated at a cell incubator for 72 h. Cell-titer Glo^TM reagent (50 μL, Promega Corp., Madison, WI, USA) was added to each well, and the luminescence signal was read using an Envision^TM plate reader (PerkinElmer, Waltham, MA, USA). The titration curve fitting and IC50 values were generated using Prism 7.0 s/w (GraphPad, San Diego, CA, USA).

SK-Br3 cells = test: Antiproliferation assay (Cell-titer Glo, 72 h); type: cell-based; conditions: Homo sapiens, SK-BR-3; 72 h; means and standard deviations from three independent assays; read-out: SK-Br3 (GI50/μM)
Procedure: as §1, §2

cyclinK = test: Western blot of cyclinK in SK-Br3 cells; type: cell-based, human; conditions: SK-Br3 cells, 0.2, 1 μM, 2 h
Procedure: (§3) The proteins were transferred to nitrocellulose membrane (Gelman Sciences, Ann Arbor, MI, USA) by electroblotting. The membranes were blocked with 5% non-fat dry milk (MB Cell, Seoul, Korea), incubated with primary antibodies for overnight at 4 °C. After the washing steps were performed with TBST solution, the membranes were incubated with HRP-conjugated secondary antibodies for 1 h at rt. After the secondary washing steps using TBST solution, protein bands on the membranes were visualized using enhanced chemiluminescence ECL detection reagent (Biorad Laboratories, Hercules, CA, USA).

Pol II p-CTD (Ser2) = test: Western blot of Pol II p-CTD (Ser2) in SK-Br3 cells; type: cell-based, human; conditions: SK-Br3 cells, 0.2, 1 μM, 2 h
From the text: For Western blot analysis, the following antibodies were used: anti-Pol II CTD (2629S, Cell Signaling Technology, Danvers, MA, USA), anti-Pol II p-CTD (Ser2) (13499S, Cell Signaling Technology), anti-cyclinK (A301-939A-M, Bethyl Laboratories), anti-IRS1 (3407S, Cell Signaling Technology), anti-WNT1 (SC-514531, Santa Cruz Biotechnology, Dallas, TX, USA), anti-β-actin (MAB1501R, Millipore, Burlington, MA, USA), and horseradish peroxidase (HRP)-conjugated secondary antibodies (anti-mouse GTX213112-01; anti-rabbit GTX213110-01) (Genetex, Irvine, CA, USA).
as §3, with “Cells were lysed with lysis buffer containing 50 mM Tris pH 7.4, 150 mM NaCl, 1 mM EDTA, 1% NP-40, and 0.25% sodium deoxycholate supplemented with protease-inhibitor and phosphatase-inhibitor cocktails. The lysate samples (25 μg/lane) were loaded onto 6–12% sodium dodecyl sulfate polyacrylamide gel and separated by electrophoresis (SDS-PAGE). The proteins” for “The proteins”

CDK12/CyclinK = CDK12/CyclinK (Homo sapiens, UniProt Q9NYV4); test: In vitro CDK12/cyclinK kinase assay; type: biochemical; design: purchased Reaction Biology Corp. (CRO that ran the assay)
CDK12/CyclinK, sequence (Q9NYV4 whole entry): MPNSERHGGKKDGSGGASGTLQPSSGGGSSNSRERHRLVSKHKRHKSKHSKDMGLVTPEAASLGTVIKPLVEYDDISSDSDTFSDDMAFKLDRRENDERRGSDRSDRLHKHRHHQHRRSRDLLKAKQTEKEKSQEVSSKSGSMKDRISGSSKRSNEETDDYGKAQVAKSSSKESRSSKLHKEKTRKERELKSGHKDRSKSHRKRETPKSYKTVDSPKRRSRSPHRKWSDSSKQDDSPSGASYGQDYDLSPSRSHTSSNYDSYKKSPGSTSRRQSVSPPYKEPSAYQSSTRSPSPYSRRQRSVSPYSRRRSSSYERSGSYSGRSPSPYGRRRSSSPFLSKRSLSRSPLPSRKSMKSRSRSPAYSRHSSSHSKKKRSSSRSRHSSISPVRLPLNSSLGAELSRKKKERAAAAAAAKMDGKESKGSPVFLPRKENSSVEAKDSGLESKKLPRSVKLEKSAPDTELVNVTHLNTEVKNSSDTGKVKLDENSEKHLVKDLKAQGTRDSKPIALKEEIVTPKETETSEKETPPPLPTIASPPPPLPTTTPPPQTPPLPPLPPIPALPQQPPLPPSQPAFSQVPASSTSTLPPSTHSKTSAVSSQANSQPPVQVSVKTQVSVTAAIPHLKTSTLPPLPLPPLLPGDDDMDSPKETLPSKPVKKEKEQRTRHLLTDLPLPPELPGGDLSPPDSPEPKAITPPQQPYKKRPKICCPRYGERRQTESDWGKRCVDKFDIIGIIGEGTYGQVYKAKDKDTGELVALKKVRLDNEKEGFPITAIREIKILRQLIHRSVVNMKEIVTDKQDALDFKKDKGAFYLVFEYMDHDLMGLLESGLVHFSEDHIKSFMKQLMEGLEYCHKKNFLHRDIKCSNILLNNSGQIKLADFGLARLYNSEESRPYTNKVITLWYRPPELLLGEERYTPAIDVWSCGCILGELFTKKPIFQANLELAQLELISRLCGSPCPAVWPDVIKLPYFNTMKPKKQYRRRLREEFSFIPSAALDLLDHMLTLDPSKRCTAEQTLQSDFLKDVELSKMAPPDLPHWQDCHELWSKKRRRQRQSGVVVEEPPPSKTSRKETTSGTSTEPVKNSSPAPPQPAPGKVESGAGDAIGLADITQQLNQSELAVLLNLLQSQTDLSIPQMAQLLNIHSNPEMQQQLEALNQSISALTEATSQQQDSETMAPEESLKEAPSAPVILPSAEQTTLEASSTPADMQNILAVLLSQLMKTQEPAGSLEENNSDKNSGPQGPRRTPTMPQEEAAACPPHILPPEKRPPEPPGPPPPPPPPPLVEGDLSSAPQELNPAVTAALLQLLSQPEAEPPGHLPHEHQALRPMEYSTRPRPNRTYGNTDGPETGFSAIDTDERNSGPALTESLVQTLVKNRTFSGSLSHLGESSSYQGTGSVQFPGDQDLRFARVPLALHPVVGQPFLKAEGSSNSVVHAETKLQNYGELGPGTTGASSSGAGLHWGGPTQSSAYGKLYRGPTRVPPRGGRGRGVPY
CDK12/CyclinK, sequence (O75909 whole entry partner): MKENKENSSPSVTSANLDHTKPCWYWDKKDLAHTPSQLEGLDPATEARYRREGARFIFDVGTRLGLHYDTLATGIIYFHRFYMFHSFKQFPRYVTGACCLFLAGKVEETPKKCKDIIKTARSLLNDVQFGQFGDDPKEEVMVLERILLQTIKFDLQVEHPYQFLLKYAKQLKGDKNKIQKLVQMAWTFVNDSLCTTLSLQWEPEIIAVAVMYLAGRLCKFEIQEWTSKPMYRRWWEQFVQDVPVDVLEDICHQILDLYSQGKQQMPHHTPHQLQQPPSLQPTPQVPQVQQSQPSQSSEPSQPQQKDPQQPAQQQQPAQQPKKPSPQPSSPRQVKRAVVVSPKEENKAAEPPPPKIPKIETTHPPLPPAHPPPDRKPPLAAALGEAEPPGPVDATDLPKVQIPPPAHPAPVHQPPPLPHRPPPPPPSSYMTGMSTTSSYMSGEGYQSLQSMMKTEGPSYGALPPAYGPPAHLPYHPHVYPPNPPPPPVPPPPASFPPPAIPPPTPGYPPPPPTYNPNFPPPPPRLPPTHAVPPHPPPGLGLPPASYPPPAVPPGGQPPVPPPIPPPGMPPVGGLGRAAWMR
Procedure: In vitro CDK12/cyclinK assays for all compounds and in vitro kinome-wide inhibition profiling of 30d at 10 μM were performed by a CRO company (Reaction Biology Corp., San Diego, CA, USA).

[1] = Tables 1-4, read-out: CDK12/CyclinK (IC50/μM)

With `CC(C)n1cnc2c(NCc3ccc(-c4ccccn4)cn3)nc(-c3cccnc3)nc21` [Compound 17a, N-([2,3′-Bipyridin]-6′-ylmethyl)-9-isopropyl-2-(pyridin-3-yl)-9H-purin-6-amine] the GI50 (HCC1954 cells) was 0.106 ± 0.011 µM, the GI50 (SK-Br3 cells) was 0.151 ± 0.025 µM and the “cyclinK level (Western blot)” value (cyclinK) was “most prominent cyclinK degradation; also recorded: downregulated Pol II p-CTD (Ser2) and cyclinK in a dose-dependent manner”. For the same compound, the “PolII p-CTD (Ser2) level (Western blot)” value (Pol II p-CTD (Ser2)) was “downregulated Pol II p-CTD (Ser2) and cyclinK in a dose-dependent manner” and the IC50 (CDK12/CyclinK; [1]) was 0.433 µM.

For `CC(C)n1cnc2c(NCc3ccc(-c4cccnc4)cn3)nc(-c3cccnc3)nc21` [Compound 17b, N-([3,3′-Bipyridin]-6-ylmethyl)-9-isopropyl-2-(pyridin-3-yl)-9H-purin-6-amine], the GI50 (HCC1954 cells) was 0.627 ± 0.128 µM, the GI50 (SK-Br3 cells) was 0.862 ± 0.178 µM and the “cyclinK level (Western blot)” value (cyclinK) was “downregulated Pol II p-CTD (Ser2) and cyclinK in a dose-dependent manner”. The “PolII p-CTD (Ser2) level (Western blot)” value (Pol II p-CTD (Ser2)) was “downregulated Pol II p-CTD (Ser2) and cyclinK in a dose-dependent manner” and the IC50 (CDK12/CyclinK; [1]) was 0.582 µM.

For `CC(C)n1cnc2c(NCc3ccc(-c4ccncc4)cn3)nc(-c3cccnc3)nc21` [Compound 17d, N-([3,4′-Bipyridin]-6-ylmethyl)-9-isopropyl-2-(pyridin-3-yl)-9H-purin-6-amine], the GI50 (HCC1954 cells) was 0.887 ± 0.04 µM, the GI50 (SK-Br3 cells) was 0.741 ± 0.034 µM and the “cyclinK level (Western blot)” value (cyclinK) was “downregulated Pol II p-CTD (Ser2) and cyclinK in a dose-dependent manner”. The “PolII p-CTD (Ser2) level (Western blot)” value (Pol II p-CTD (Ser2)) was “downregulated Pol II p-CTD (Ser2) and cyclinK in a dose-dependent manner” and the IC50 (CDK12/CyclinK; [1]) was 0.627 µM.

For `Cc1cc(-c2ccc(CNc3nc(-c4cccnc4)nc4c3ncn4C(C)C)nc2)ccn1` [Compound 17e, 9-Isopropyl-N-((2′-methyl-[3,4′-bipyridin]-6-yl)methyl)-2-(pyridin-3-yl)-9H-purin-6-amine], the GI50 (HCC1954 cells) was 0.23 ± 0.044 µM, the GI50 (SK-Br3 cells) was 0.277 ± 0.038 µM and the “cyclinK level (Western blot)” value (cyclinK) was “downregulated Pol II p-CTD (Ser2) and cyclinK in a dose-dependent manner”. The “PolII p-CTD (Ser2) level (Western blot)” value (Pol II p-CTD (Ser2)) was “downregulated Pol II p-CTD (Ser2) and cyclinK in a dose-dependent manner” and the IC50 (CDK12/CyclinK; [1]) was 0.481 µM.

With `CCn1cnc2c(NCc3ccc(-c4cccnc4)nc3)nc(-c3cccnc3)nc21` [Compound 28a, N-([2,3′-Bipyridin]-5-ylmethyl)-9-ethyl-2-(pyridin-3-yl)-9H-purin-6-amine] the GI50 (HCC1954 cells) was 0.142 ± 0.014 µM, the GI50 (SK-Br3 cells) was 0.215 ± 0.053 µM and the IC50 (CDK12/CyclinK; [1]) was 0.016 µM. For the same compound, the IC50 (CDK12/CyclinK; read-out: CDK12/cyclinK IC50) was under 0.03 µM.
